Laboratory results from a compilation of properties of binary mixtures (doi:10.1016/j.molliq.2020.112816).

Assay: xn = mol fraction of the nth substance listed
Settings: 101 kPa

NC=O + CCCC[n+]1ccn(C)c1.F[B-](F)(F)F
Settings	speed of sound [m/s]	viscosity [mPa·s]
293.15 K, x2 = 0.0675	1614.2	4.01
293.15 K, x2 = 0.135	1613.4	4.81
293.15 K, x2 = 0.2054	1611.9	7
293.15 K, x2 = 0.4499	1602.9	24.97
293.15 K, x2 = 0.6639	1593.2	54.2
293.15 K, x2 = 0.7588	1588.7	71.4
293.15 K, x2 = 0.8107	1586.2	81.8
293.15 K, x2 = 0.8626	1583.7	93.3
293.15 K, x2 = 0.9313	1580.3	109.6
298.15 K, x2 = 0	1602.4	3.27
298.15 K, x2 = 0.0675	1603	3.73
298.15 K, x2 = 0.135	1602.3	4.65
298.15 K, x2 = 0.2054	1600.8	6.6
298.15 K, x2 = 0.3629	1595.4	14.43
298.15 K, x2 = 0.4499	1591.8	20.95
298.15 K, x2 = 0.5095	1589.3	26.31
298.15 K, x2 = 0.569	1586.6	32.4
298.15 K, x2 = 0.6639	1582.2	43.6
298.15 K, x2 = 0.8626	1572.7	73.4
298.15 K, x2 = 0.9313	1569.3	85.6
303.15 K, x2 = 0	1590.5	2.918
303.15 K, x2 = 0.0675	1591.4	3.28
303.15 K, x2 = 0.135	1590.9	4.23
303.15 K, x2 = 0.2054	1589.4	5.84
303.15 K, x2 = 0.2758	1587.2	8.24
303.15 K, x2 = 0.3629	1584	12.35
303.15 K, x2 = 0.5095	1578	21.66
303.15 K, x2 = 0.569	1575.3	26.36
303.15 K, x2 = 0.6639	1570.9	35
303.15 K, x2 = 0.7588	1566.5	44.9
308.15 K, x2 = 0	1578.3	2.607
308.15 K, x2 = 0.0675	1579.4	3.049
308.15 K, x2 = 0.135	1579	3.99
308.15 K, x2 = 0.2054	1577.5	5.48
308.15 K, x2 = 0.3629	1572.2	10.72
308.15 K, x2 = 0.5095	1566.2	17.95
308.15 K, x2 = 0.569	1563.6	21.5
308.15 K, x2 = 0.6639	1559.3	27.92
308.15 K, x2 = 0.7588	1554.8	35.3
308.15 K, x2 = 0.8107	1552.3	39.7
308.15 K, x2 = 0.8626	1549.8	44.5
313.15 K, x2 = 0	1565.9	2.328
313.15 K, x2 = 0.0675	1567.3	2.599
313.15 K, x2 = 0.135	1567	3.4
313.15 K, x2 = 0.2758	1563.3	6.21
313.15 K, x2 = 0.5095	1554.2	14.39
313.15 K, x2 = 0.569	1551.6	17.16
313.15 K, x2 = 0.6639	1547.3	22.22
313.15 K, x2 = 0.7588	1542.9	28.02
313.15 K, x2 = 0.8107	1540.4	31.6
313.15 K, x2 = 0.8626	1537.8	35.2
313.15 K, x2 = 0.9313	1534.3	40.4
318.15 K, x2 = 0	1553.1	2.096
318.15 K, x2 = 0.0675	1554.9	2.4
318.15 K, x2 = 0.135	1554.6	2.982
318.15 K, x2 = 0.2054	1553	3.88
318.15 K, x2 = 0.3629	1547.7	7.11
318.15 K, x2 = 0.4499	1544.2	9.72
318.15 K, x2 = 0.5095	1541.8	11.78
318.15 K, x2 = 0.7588	1530.5	23.24
318.15 K, x2 = 0.8107	1528	26.2
318.15 K, x2 = 0.9313	1521.9	33.8

CCCC[n+]1ccn(C)c1.F[B-](F)(F)F + NC=O
x1 = 1
Settings	speed of sound [m/s]	viscosity [mPa·s]
293.15 K	1576.8	127.6
298.15 K	1565.7	98.9
303.15 K	1554.4	76.3
313.15 K	1530.5	46.2
